What was measured:
BRD4 = BRD4 (Homo sapiens (Human), UniProt O60885); assay: TR-FRET in-vitro binding assay for BRD4; settings: 45 nM His-Brd4(44-477), acetyl-histone H4 (AcK 5, 8, 12, 16) peptide
How it was run: (§1)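 Binding is detected by TR-FRET following incubation for 35 minutes at 30° C.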

BRD3 = BRD3 (Homo sapiens (Human), UniProt Q15059); assay: TR-FRET in-vitro binding assay for BRD3; settings: 45 nM His-Brd3(20-477), acetyl-histone H4 (AcK 5, 8, 12, 16) peptide
How it was run: as §1

CREBBP = CREBBP (Homo sapiens (Human), UniProt Q92793); assay: AlphaScreen in-vitro binding assay for CREBBP; settings: 324 nM His-CREBBP (1081-1197), acetyl-histone H4 (AcK 5, 8, 12) peptide
How it was run: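 IC50 values were derived by non-linear regression of percent inhibition across 8 compound concentrations. Protein was His-tagged CREBBP bromodomain (1081-1197), peptide acetyl-histone H4 (AcK 5, 8, 12), in HEPES pH 7.5 buffer. Read-out was AlphaScreen with Ni-chelate acceptor and streptavidin donor beads, 35 min at 30° C then 60 min at RT.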

MV-4-11 = assay: Cell growth inhibition assay (CellTiter-Glo), MV-4-11; format: cell-based, human; settings: MV-4-11 cells, 4 days; for GI50: Homo sapiens, MV4-11, 96 h, half-maximal growth inhibition; for MV-4-11 TGI: total growth inhibition
How it was run: (§2)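 4-day CTG ATP readout, 37 °C/5% CO2; top conc 10 μM, 3-fold dilutions; 0.1% DMSO vehicle. Luminescence background-subtracted, normalised to day 0 plate; vehicle = 100%, medium = −100%. IC50/TGI by 4-parameter fit.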

THP-1 = assay: Cell growth inhibition assay (CellTiter-Glo), THP-1; format: cell-based, human; settings: THP-1 cells, 4 days; for GI50: Homo sapiens, 96 h, half-maximal growth inhibition; for THP-1 TGI: total growth inhibition
How it was run: as §2

K-562 = assay: Cell growth inhibition assay (CellTiter-Glo), K-562; format: cell-based, human; settings: K-562 cells, 4 days; for GI50: Homo sapiens, K562, 96 h, half-maximal growth inhibition; for K-562 TGI: total growth inhibition
How it was run: as §2

BRD3, sequence (Q15059 20-477): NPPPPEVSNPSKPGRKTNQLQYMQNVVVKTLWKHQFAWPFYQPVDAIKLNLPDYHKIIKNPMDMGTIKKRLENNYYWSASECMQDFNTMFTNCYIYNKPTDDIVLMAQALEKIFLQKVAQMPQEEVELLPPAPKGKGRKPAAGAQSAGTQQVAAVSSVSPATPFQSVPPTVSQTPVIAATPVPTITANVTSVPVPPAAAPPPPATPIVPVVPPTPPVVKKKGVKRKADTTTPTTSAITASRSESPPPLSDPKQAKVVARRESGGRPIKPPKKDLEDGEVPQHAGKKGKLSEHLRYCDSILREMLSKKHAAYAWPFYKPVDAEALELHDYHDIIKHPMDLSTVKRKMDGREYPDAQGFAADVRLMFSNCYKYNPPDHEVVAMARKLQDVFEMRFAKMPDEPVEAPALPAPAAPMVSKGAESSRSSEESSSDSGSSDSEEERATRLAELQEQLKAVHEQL
CREBBP, sequence (Q92793 1081-1197): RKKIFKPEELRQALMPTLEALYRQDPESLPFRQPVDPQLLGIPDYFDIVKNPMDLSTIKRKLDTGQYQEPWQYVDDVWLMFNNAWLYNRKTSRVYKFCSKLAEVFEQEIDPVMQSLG

Row | Structure (SMILES) | IC50 (BRD4) | IC50 (BRD3) | IC50 (CREBBP) | GI50 (MV-4-11) | GI50 (THP-1) | GI50 (K-562) | MV-4-11 TGI (MV-4-11) | THP-1 TGI (THP-1) | K-562 TGI (K-562)
1 | Cc1cc(N2C(=O)c3cc(C4CCOCC4)n(C)c3C2c2ccc(Cl)cc2)cn2c(C)nnc12 (stereo not drawn) [Example 121, 6-(4-chlorophenyl)-5-(3,8-dimethyl-[1,2,4]triazolo[4,3-a]pyridin-6-yl)-1-methyl-2-(tetrahydro-2H-pyran-4-yl)-5,6-dihydropyrrolo[3,4-b]pyrrol-4(1H)-one] | 0.056 µM | 0.044 µM | 0.64 µM | 0.0549 µM | 0.0447 µM | 0.164 µM | 0.0893 µM | 0.0862 µM | >10 µM
2 | Cc1cn(C2CCN(C)C2=O)c2c1C(=O)N(c1cc(C)c3nnc(C)n3c1)C2c1ccc(Cl)cc1 (stereo not drawn) [Example 126, 6-(4-chlorophenyl)-5-(3,8-dimethyl-[1,2,4]triazolo[4,3-a]pyridin-6-yl)-3-methyl-1-(1-methyl-2-oxopyrrolidin-3-yl)-5,6-dihydropyrrolo[3,4-b]pyrrol-4(1H)-one] | 0.043 µM | 0.048 µM | 12.9 µM | 0.0746 µM | 0.113 µM | 0.629 µM | 0.18 µM | 0.3155 µM | >10 µM
3 | CNC(=O)Cn1cc(C)c2c1C(c1ccc(Cl)cc1)N(c1cc(C)c3nnc(C)n3c1)C2=O (stereo not drawn) [Example 127, 2-(6-(4-chlorophenyl)-5-(3,8-dimethyl-[1,2,4]triazolo[4,3-a]pyridin-6-yl)-3-methyl-4-oxo-5,6-dihydropyrrolo[3,4-b]pyrrol-1(4H)-yl)-N-methylacetamide] | 0.085 µM | 0.081 µM | 7.5 µM | 0.413 µM | 0.824 µM | 2.32 µM | 0.64 µM | 1.129 µM | >10 µM
4 | Cc1cn(CCN(C)C)c2c1C(=O)N(c1cc(C)c3nnc(C)n3c1)C2c1ccc(Cl)cc1 (stereo not drawn) [Example 128, 6-(4-chlorophenyl)-5-(3,8-dimethyl-[1,2,4]triazolo[4,3-a]pyridin-6-yl)-1-(2-(dimethylamino)ethyl)-3-methyl-5,6-dihydropyrrolo[3,4-b]pyrrol-4(1H)-one] | 0.045 µM | 0.046 µM | 27.6 µM | 0.0395 µM | 0.0377 µM | 0.203 µM | 0.0629 µM | 0.1051 µM | >10 µM
5 | Cc1cn(CC(=O)N(C)C)c2c1C(=O)N(c1cc(C)c3nnc(C)n3c1)C2c1ccc(Cl)cc1 (stereo not drawn) [Example 129, 2-(6-(4-chlorophenyl)-5-(3,8-dimethyl-[1,2,4]triazolo[4,3-a]pyridin-6-yl)-3-methyl-4-oxo-5,6-dihydropyrrolo[3,4-b]pyrrol-1(4H)-yl)-N,N-dimethylacetamide] | 0.054 µM | 0.058 µM | 8.1 µM | 0.0963 µM | 0.189 µM | 0.491 µM | 0.143 µM | 0.4395 µM | >10 µM
6 | Cc1cc(N2C(=O)c3ccn(C)c3C2c2ccc(Cl)cc2)nn2c(C)nnc12 (stereo not drawn) [Example 131, 6-(4-chlorophenyl)-5-(3,8-dimethyl-[1,2,4]triazolo[4,3-b]pyridazin-6-yl)-1-methyl-5,6-dihydropyrrolo[3,4-b]pyrrol-4(1H)-one] | 0.033 µM | 0.027 µM | > 37 µM | 0.00921 µM | 0.00976 µM | 0.0671 µM | 0.0215 µM | 0.03025 µM | >10 µM
7 | CC(=O)Nc1cn(C)c2c1C(=O)N(c1cc(C)c3nnc(C(F)F)n3c1)C2c1ccc(Cl)cc1 (stereo not drawn) [Example 133, N-(6-(4-chlorophenyl)-5-(3-(difluoromethyl)-8-methyl-[1,2,4]triazolo[4,3-a]pyridin-6-yl)-1-methyl-4-oxo-1,4,5,6-tetrahydropyrrolo[3,4-b]pyrrol-3-yl)acetamide] | 0.029 µM | 0.032 µM | 13.9 µM | 0.0246 µM | 0.03 µM | 0.0927 µM | 0.0497 µM | 0.07425 µM | >10 µM

Stronger by IC50 (BRD4), values ahead:

Row | IC50 (BRD4) | IC50 (BRD3) | IC50 (CREBBP) | GI50 (MV-4-11) | GI50 (THP-1) | GI50 (K-562) | Structure (SMILES) | MV-4-11 TGI (MV-4-11) | THP-1 TGI (THP-1) | K-562 TGI (K-562)
8 | < 0.011 µM | < 0.011 µM | 1.6 µM | 0.00302 µM | 0.00367 µM | 0.0254 µM | COc1ncccc1-c1c(C2CC2)c2c(n1C)C(c1ccc(Cl)cc1)N(c1cc(C)c3nnc(C)n3c1)C2=O (stereo not drawn) [Example 120, 6-(4-chlorophenyl)-3-cyclopropyl-5-(3,8-dimethyl-[1,2,4]triazolo[4,3-a]pyridin-6-yl)-2-(2-methoxypyridin-3-yl)-1-methyl-5,6-dihydropyrrolo[3,4-b]pyrrol-4(1H)-one] | 0.005053 µM | 0.005503 µM | >7 µM
9 | 0.012 µM | 0.015 µM | 4.5 µM | 0.00911 µM | 0.00604 µM | 0.041 µM | Cc1cc(N2C(=O)c3c(C4CC4)c(C)n(C)c3C2c2ccc(Cl)cc2)cn2c(C)nnc12 (stereo not drawn) [Example 122, 6-(4-chlorophenyl)-3-cyclopropyl-5-(3,8-dimethyl-[1,2,4]triazolo[4,3-a]pyridin-6-yl)-1,2-dimethyl-5,6-dihydropyrrolo[3,4-b]pyrrol-4(1H)-one] | 0.01297 µM | 0.01193 µM | >7 µM
10 | < 0.011 µM | 0.011 µM | 2.8 µM | 0.00514 µM | 0.00603 µM | 0.0376 µM | CCOC(=O)n1c(C2=CCOCC2)c(C)c2c1C(c1ccc(Cl)cc1)N(c1cc(C)c3nnc(C)n3c1)C2=O (stereo not drawn) [Example 123, Ethyl 6-(4-chlorophenyl)-2-(3,6-dihydro-2H-pyran-4-yl)-5-(3,8-dimethyl-[1,2,4]triazolo[4,3-a]pyridin-6-yl)-3-methyl-4-oxo-5,6-dihydropyrrolo[3,4-b]pyrrole-1(4H)-carboxylate] | 0.009695 µM | 0.0135 µM | >10 µM
11 | 0.011 µM | 0.014 µM | 1.5 µM | 0.00658 µM | 0.00756 µM | 0.0416 µM | CCOC(=O)n1c(-c2cccnc2OC)c(C)c2c1C(c1ccc(Cl)cc1)N(c1cc(C)c3nnc(C)n3c1)C2=O (stereo not drawn) [Example 124, Ethyl 6-(4-chlorophenyl)-5-(3,8-dimethyl-[1,2,4]triazolo[4,3-a]pyridin-6-yl)-2-(2-methoxypyridin-3-yl)-3-methyl-4-oxo-5,6-dihydropyrrolo[3,4-b]pyrrole-1(4H)-carboxylate] | 0.0132 µM | 0.0158 µM | >10 µM
12 | 0.015 µM | 0.015 µM | 13.7 µM | 0.0121 µM | 0.015 µM | 0.115 µM | CCOC(=O)n1cc(C2CC2)c2c1C(c1ccc(Cl)cc1)N(c1cc(C)c3nnc(C)n3c1)C2=O (stereo not drawn) [Example 125, Ethyl 6-(4-chlorophenyl)-3-cyclopropyl-5-(3,8-dimethyl-[1,2,4]triazolo[4,3-a]pyridin-6-yl)-4-oxo-5,6-dihydropyrrolo[3,4-b]pyrrole-1(4H)-carboxylate] | 0.01925 µM | 0.0284 µM | >10 µM
13 | 0.012 µM | 0.013 µM | 12.8 µM | < 0.003 µM | 0.0129 µM | 0.0764 µM | Cc1cc(N2C(=O)c3c(C4CNC4)cn(C)c3C2c2ccc(Cl)cc2)nc2c1nnn2C (stereo not drawn) [Example 130, 3-(azetidin-3-yl)-6-(4-chlorophenyl)-5-(3,7-dimethyl-3H-[1,2,3]triazolo[4,5-b]pyridin-5-yl)-1-methyl-5,6-dihydropyrrolo[3,4-b]pyrrol-4(1H)-one] | 0.00621 µM | 0.031 µM | 3.5 µM
14 | 0.016 µM | 0.023 µM | 14.1 µM | 0.00958 µM | 0.0101 µM | 0.0586 µM | CNC(=O)c1cn(C)c2c1C(=O)N(c1cc(C)c3nnc(C(F)F)n3c1)C2c1ccc(Cl)cc1 (stereo not drawn) [Example 132, 6-(4-chlorophenyl)-5-(3-(difluoromethyl)-8-methyl-[1,2,4]triazolo[4,3-a]pyridin-6-yl)-N,1-dimethyl-4-oxo-1,4,5,6-tetrahydropyrrolo[3,4-b]pyrrole-3-carboxamide] | 0.02315 µM | 0.026 µM | >10 µM

Reference: US9550796B2, “Pyrrolopyrrolone derivatives and their use as BET inhibitors” (NOVARTIS AG, priority 2013, dated 2017)
